Results taken from US20110212108A1, “NEUREGULIN/ERBB SIGNALING AND INTEGRIN” (THE REGENTS OF THE UNIVERSITY OF CALIFORNIA, priority 2008, published 2011).
Positions count from the first letter of the chain named. “Also recorded” adds a separate entry of the source.

Key:
Human M21 melanoma cells = assay: M21 cell proliferation, MTS assay; format: cell-based; conditions: for Induction of proliferation of M21 melanoma cells: serum-starved overnight, cultured 48 h, MTS
Procedure: FIG. 8. […] The mutant NRG1 (175-222) suppressed proliferation induced by wt NRG1 (175-222) (dominant-negative effect). Human M21 melanoma cells were serum-starved overnight and cultured 48 h with wt or mutant GST-NRG1 (175-222). Cell proliferation was measured by using MTS assays. Data are shown as means+/−SE (n=3). […] For 3KE+WT, 10 ng/ml wt NRG1 (175-222) and mutant NRG1 (175-222) were added at the indicated concentrations. […] P<0.0001 between wt and 3KE, p=0.0001 between wt and 3KE+wt by 2-way ANOVA. There is no statistical significance between 3KE and 3KE+wt (p=0.58).
Cell proliferation: cells were starved by culturing DMEM with low-level FCS (e.g., 0.4%) overnight and then treated with the wt or mutant NRG1 (175-222) (up to 100 ng/ml). The cells were harvested in 15 min to 6 h after stimulation and cell lysates analyzed by western blotting with antibodies specific to signaling molecules. Alternatively, cells were cultured for 24-48 h after stimulation for testing proliferation or cell viability by MTS assays. Statistical analysis and calculation of kinetic constants were performed using Prism software (Graphpad).

[1] = system: estrogen-dependent and independent breast cancer cell lines; assay: Growth of breast cancer cell lines; format: cell-based; conditions: several estrogen-dependent and independent lines
[2] = system: CHO cells that express recombinant human ErbB4 (ErbB4-CHO); assay: ERK1/2 activation in ErbB4-CHO cells, Western blotting; format: cell-based, Chinese hamster; conditions: serum-starved
Procedure: FIG. 14. […] ErbB4 was stably expressed in CHO cells (designated ErbB4-CHO cells). ErbB4 was detected in a cell lysate of ErbB4-CHO cells by western blotting (top). Serum-starved CHO or ErbB4-CHO cells were stimulated with wt NRG1 (175-222) or the 3KE (175-222) mutant and ERK1/2 activation was measured by Western blotting.
CHO cells express endogenous ErbB2 and ErbB3, but no ErbB4. CHO cells that express ErbB4 were generated by transfecting ErbB4 expression vector (designated ErbB4-CHO). […] It is therefore believed that the direct binding of integrin […] the Ras-MAP kinase pathway in ErbB4-CHO cells.
Transfection: ErbB4 stably transfected cells were generated by transfecting ErbB4 expression plasmid pCDNA3.1 (with a neo gene) to cells and selected for G418 resistance. Western blotting analysis were performed as described above, and mutagenesis was carried out by the Quick-Change method.

[3] = biological target: T1, CHO cells that express human β1 (β1-CHO) (Homo sapiens, UniProt P05556); assay: Cell adhesion assay, β1-CHO cells; format: cell-based
T1 construct: expressed in transfected cells; host or cells: CHO
Procedure: FIG. 3. Adhesion of CHO cells that express human β1 (β1-CHO) or β1-3-1 (β1-3-1-CHO) to wt NRG1 (175-222). The β1-3-1 mutation changes the specificity of β1 integrins to that of β3 integrins. Cell adhesion was performed as described herein. β1-3-1-CHO cells adhered to wt NRG1 (175-222) and this binding was blocked by anti-human β1 antibody AIIB2, but not by purified mouse IgG (mIgG). BSA: BSA as a control was coated instead of NRG1 (175-222).
CHO or K562 cells expressing different recombinant integrins were previously known and available (Zhang et al. 1998; Tarui et al. 2006). Labeling of proteins with FITC or […] was performed according to manufacturers' instructions. Flow cytometry was performed as described above. Also, adhesion assays as described above were used to confirm the findings using flow cytometry.
Cell adhesion and soluble integrin binding assays were performed as described previously (Mori, et al., 2008). NRG1α (175-241) was immobilized to wells of 96-well microtiter plate overnight at 4° C. in 0.1 M carbonate buffer, pH 2 9.4. Remaining protein binding sites were blocked by incubating with 200 μl of 0.1% BSA in PBS for 60 min at room temperature. […] After rinsing the wells with the same buffer, bound integrins were determined by horseradish peroxidase (HRP)-conjugated anti-His tag mouse IgG and substrate 3,3′,5,5′-tetramethylbenzidine of HRP.

αvβ3-ErbB3 complex = biological target: T2, αvβ3-ErbB3 complex (Homo sapiens, UniProt P05106+P06756+P21860); assay: Co-immunoprecipitation of integrin αvβ3 and ErbB3 in MCF-7 cells; format: cell-based; conditions: for Co-precipitation of integrin β3 with ErbB3 in MCF-7 cells: 5 nM, 5-30 min
T2 construct: endogenous in cells; host or cells: MCF-7
Procedure: FIG. 21. WT NRG1α (175-241) induced co-precipitation of integrin αvβ3 and ErbB3, while 3KE (175-241) is defective in this function. a) MCF-7 cells were serum-starved overnight and stimulated with WT or 3KE NRG1α (175-241) at indicated time points. In the present invention, 1 mg protein of cell lysate was used for immuno-precipitation of the αvβ3-ErbB3 complex with anti-ErbB3 antibody Immunoprecipitated materials were analyzed by Western blotting using antibodies specific to ErbB3, phosphorylated ErbB3, or integrin β3. The levels of ErbB3 phosphorylation were less with the 3KE mutant (175-241). Integrin αvβ3 was co-immuno-precipitated with the ErbB3 in 5-30 min upon stimulation with WT NRG1α (175-241), while the 3KE (175-241) mutant was defective in this function. b) Levels of β3 coprecipitation. In the present invention, the levels of β3 co-precipitation from digital images was quantified using ImageJ. The data are normalized with time 0 as 1 from two independent experiments.
Five minutes to 3 h after treatment with 5 nM WT or 3KE mutant NRG1α (175-241), MCF-7 cells were washed with ice-cold PBS and lysed with lysis buffer. The cell lysate was incubated with anti-ErbB3 overnight at 4° C. The immune complex was recovered by incubating with protein A Sepharose (GE Healthcare) for 1 hour at 4° C. and washed three times with wash buffer (20 mM HEPES (pH 7.4), 100 mM NaCl, 10% Glycerol, 0.5% NP-40, 1 mM MgCl2, 5 mM EDTA, 0.5% Triton X-100, 1 mM phenylmethylsulfonyl fluoride, 20 mM NaF, 1 mM Na3VO4, protease inhibitor cocktail (Sigma-Aldrich)). The immunoprecipitates were analyzed by western blotting with antibodies specific to integrin β3.

T2 sequence (P21860 20-1342): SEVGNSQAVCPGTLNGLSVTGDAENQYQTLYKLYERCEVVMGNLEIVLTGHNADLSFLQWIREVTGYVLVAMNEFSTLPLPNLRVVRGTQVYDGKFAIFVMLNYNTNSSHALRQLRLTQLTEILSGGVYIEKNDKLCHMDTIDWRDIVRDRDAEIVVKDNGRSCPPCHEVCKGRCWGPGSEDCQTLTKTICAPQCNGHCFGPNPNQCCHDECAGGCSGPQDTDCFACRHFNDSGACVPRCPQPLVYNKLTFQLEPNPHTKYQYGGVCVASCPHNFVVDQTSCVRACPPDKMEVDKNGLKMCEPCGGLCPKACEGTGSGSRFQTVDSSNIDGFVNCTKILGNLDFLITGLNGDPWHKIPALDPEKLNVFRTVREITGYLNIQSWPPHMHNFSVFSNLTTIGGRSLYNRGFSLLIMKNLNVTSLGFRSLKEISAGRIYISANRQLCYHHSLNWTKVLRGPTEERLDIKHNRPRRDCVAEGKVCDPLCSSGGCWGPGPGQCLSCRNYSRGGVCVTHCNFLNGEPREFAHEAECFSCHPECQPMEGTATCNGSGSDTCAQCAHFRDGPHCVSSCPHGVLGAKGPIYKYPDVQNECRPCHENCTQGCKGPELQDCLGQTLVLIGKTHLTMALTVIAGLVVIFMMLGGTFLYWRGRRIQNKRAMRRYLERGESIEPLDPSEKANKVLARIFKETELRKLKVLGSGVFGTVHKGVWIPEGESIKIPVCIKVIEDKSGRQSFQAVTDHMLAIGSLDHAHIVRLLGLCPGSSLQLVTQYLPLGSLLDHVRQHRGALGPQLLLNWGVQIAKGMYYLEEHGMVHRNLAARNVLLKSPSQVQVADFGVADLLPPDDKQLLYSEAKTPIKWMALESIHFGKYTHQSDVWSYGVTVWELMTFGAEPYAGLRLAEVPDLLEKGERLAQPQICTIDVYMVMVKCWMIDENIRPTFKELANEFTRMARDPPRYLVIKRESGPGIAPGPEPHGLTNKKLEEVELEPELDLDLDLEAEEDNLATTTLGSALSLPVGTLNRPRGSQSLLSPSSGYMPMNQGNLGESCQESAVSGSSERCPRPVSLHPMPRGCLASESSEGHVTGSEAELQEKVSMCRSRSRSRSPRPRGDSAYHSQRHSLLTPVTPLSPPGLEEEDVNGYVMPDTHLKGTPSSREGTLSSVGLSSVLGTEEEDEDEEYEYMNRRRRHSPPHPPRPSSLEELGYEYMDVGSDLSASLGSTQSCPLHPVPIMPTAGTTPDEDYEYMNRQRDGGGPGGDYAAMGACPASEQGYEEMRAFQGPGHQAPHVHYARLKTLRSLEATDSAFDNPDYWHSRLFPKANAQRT
T2 sequence (P06756 31-1048): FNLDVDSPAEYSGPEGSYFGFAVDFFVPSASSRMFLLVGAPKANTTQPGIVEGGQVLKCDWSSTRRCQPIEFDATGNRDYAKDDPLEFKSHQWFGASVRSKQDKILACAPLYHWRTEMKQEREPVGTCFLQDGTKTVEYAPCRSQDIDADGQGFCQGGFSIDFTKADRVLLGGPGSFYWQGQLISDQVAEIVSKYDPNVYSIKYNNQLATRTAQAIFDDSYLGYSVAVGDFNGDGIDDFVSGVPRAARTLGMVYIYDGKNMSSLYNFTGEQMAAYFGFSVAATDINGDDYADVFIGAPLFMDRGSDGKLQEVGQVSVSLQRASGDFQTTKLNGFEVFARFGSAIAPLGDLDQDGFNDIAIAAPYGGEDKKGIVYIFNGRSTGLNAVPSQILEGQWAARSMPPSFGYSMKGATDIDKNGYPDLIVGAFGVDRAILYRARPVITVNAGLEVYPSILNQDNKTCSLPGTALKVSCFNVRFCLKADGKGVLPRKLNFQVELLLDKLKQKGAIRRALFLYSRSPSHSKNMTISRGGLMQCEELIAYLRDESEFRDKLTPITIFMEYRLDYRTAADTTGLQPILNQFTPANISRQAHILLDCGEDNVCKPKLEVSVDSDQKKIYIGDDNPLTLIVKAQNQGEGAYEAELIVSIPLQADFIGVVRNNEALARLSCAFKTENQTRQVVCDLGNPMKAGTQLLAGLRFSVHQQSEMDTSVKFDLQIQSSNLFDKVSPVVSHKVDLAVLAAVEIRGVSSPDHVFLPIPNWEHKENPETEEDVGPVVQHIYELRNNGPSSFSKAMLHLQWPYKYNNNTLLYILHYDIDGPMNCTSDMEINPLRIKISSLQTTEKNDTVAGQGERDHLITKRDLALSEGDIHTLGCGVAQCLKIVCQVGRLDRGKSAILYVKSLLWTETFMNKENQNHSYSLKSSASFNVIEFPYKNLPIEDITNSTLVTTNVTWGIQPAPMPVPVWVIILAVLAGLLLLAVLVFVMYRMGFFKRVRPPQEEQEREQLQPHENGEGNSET
T2 sequence (P05106 27-788): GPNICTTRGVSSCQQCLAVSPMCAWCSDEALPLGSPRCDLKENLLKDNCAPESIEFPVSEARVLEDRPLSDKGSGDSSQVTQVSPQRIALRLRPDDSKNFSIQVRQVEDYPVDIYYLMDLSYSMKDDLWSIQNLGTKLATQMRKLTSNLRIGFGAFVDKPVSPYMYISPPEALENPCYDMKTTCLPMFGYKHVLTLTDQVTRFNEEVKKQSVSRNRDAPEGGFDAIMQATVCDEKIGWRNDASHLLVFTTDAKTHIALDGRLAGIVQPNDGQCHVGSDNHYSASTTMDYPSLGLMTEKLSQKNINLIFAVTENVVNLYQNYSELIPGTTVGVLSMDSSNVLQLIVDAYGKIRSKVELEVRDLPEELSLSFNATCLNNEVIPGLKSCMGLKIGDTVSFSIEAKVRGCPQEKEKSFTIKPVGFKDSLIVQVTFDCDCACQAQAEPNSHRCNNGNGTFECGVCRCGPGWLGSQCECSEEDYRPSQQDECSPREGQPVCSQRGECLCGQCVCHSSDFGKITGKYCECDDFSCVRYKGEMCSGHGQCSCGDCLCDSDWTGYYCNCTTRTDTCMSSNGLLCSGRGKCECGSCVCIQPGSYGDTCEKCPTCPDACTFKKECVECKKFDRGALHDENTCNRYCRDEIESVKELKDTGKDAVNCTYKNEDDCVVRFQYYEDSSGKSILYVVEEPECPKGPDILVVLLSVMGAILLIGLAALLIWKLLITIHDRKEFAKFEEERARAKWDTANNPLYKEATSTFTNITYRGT
T1 sequence (P05556 21-798): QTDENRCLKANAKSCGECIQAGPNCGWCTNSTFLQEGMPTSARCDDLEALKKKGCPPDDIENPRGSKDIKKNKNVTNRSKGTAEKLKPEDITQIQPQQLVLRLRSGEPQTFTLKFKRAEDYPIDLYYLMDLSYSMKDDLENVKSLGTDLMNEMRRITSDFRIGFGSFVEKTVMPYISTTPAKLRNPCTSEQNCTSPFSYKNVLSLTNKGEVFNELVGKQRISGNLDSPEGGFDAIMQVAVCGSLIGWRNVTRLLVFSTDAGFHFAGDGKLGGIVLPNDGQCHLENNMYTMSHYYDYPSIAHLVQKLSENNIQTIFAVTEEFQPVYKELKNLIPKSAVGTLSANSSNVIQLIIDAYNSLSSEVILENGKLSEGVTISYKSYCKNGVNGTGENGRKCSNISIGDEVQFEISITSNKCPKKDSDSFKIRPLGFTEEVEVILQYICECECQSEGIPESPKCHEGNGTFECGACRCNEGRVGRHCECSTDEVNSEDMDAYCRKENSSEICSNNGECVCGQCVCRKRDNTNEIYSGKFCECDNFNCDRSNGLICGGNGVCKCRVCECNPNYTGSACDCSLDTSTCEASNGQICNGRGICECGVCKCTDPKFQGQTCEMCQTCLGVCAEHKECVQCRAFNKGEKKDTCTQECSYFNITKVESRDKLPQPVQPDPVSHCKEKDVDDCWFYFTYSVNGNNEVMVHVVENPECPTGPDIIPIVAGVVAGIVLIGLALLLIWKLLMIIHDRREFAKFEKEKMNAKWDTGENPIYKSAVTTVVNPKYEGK

3KE (175-222): NRG1 (175-222) with Lys181/Lys185/Lys187 mutated to Glu; GTSHLVECAEEEETFCVNGGECFMVKDLSNPSRYLCKCQPGFTGARCT (SEQ ID NO:11) (integrin-binding site within human neuregulin, 3KE mutant, short version)
Suppression of proliferation induced by wt NRG1 (175-222) in M21 cells (Human M21 melanoma cells; added together with 10 ng/ml wt NRG1 (175-222)): suppressed the proliferation induced by wt NRG1 (175-222) | Induction of proliferation of M21 melanoma cells (Human M21 melanoma cells): did not induce proliferation | Growth of breast cancer cells [1]: did not | ERK1/2 activation in ErbB4-CHO cells [2]: activated ERKI/2; also recorded: enhanced ERK1/2 activation

wt NRG1 (175-222): wild type human neuregulin 1 fragment, EGF-like domain, residues 175-222 of SEQ ID NO:4 (SEQ ID NO:3) (GTSHLVKCAEKEKTFCVNGGECFMVKDLSNPSRYLCKCQPGFTGARCT; integrin-binding site within human neuregulin 1 EGF-like region and portion of alpha domain, residues 175-222 of human neuregulin 1 alpha) [reference compound]
Adhesion of β1-CHO cells to the immobilized protein [3]: did not | Induction of proliferation of M21 melanoma cells (Human M21 melanoma cells): did | Growth of breast cancer cells [1]: enhanced the growth of breast cancer cells | ERK1/2 activation in ErbB4-CHO cells [2]: suppressed ERK1/2 | ERK1/2 activation in ErbB4-CHO cells ([2]; listed as wt NRG (175-222)): suppressed

B1: WT NRG1α (175-241): wild type human neuregulin 1 fragment, residues 175-241 of SEQ ID NO:4 (SEQ ID NO:5), entire EGF-like motif and α domain (protein)
chain: GTSHLVKCAEKEKTFCVNGGECFMVKDLSNPSRYLCKCQPGFTGARCTENVPMKVQNQEKAEELYQK
modifications: integrin-binding site within human neuregulin, residues 175-241of human neuregulin 1alpha, long version
Adhesion of β1-CHO cells to the immobilized protein [3]: did not | Co-precipitation of integrin β3 with ErbB3 in MCF-7 cells (αvβ3-ErbB3 complex): increased the amount of integrin β3 protein that co-precipitates with ErbB3

B2: 3KE (175-241): NRG1α (175-241) with Lys181/Lys185/Lys187 mutated to Glu, SEQ ID NO:6 (3KE, long version) (protein)
chain: B1 chain with K7E, K11E, K13E
modifications: integrin-binding site within human neuregulin, residues 175-241of human neuregulin 1alpha, long version, 3KE mutant
Co-precipitation of integrin β3 with ErbB3 in MCF-7 cells (αvβ3-ErbB3 complex): did not | Levels of ErbB3 phosphorylation in anti-ErbB3 immunoprecipitates of MCF-7 cells (αvβ3-ErbB3 complex; compared with WT NRG1α (175-241)): less
